Here are results for two compounds from patent US20260000601A1, “Anti-Carbonylation Composition And Method Of Protecting Keratin Materials From Carbonylation Stimuli By Using Compositions Including Polylysines” (ELC Management LLC, priority 2022, published 2026).

The data set has as its system Bovine Serum Albumin (BSA). Briefly: In vitro anti-carbonylation efficacy test (acrolein-induced carbonylation of BSA, Protein Carbonyl Assay Kit). As to conditions: BSA + acrolein in PBS, 37° C. overnight; for % inhibition of carbonylation (average): blank = 0%; for Percentage of protein carbonylation level (average): blank = 100%.
[1] abbreviates: agent working concentration 0.005%.
The mark [2] stands for this setting: agent working concentration 0.05%.

Experimental: This assay provides an in vitro method to determine how an anti-carbonylation agent/composition affects the extent of protein carbonylation. With deionized water, the anti-carbonylation agent/composition to be tested was made into a 1% solution, Bovine Serum Albumin (BSA) was made into a 10 mg/mL solution, and Acrolein was made into a 10 mM solution. Then, in a 1.5 mL centrifuge tube, according to the content in Table 1, BSA (10 mg/mL), anti-carbonylation agent/composition (1%), Acrolein (10 mM) and Phosphate buffer solution (PBS) were added to the centrifuge tube. The sample containing only BSA and PBS served as a baseline, and the sample containing BSA, Acrolein and PBS served as a blank. The final liquid volume in each centrifuge tube was 1.0 mL. Each group contained three replicate samples, and all samples were placed at 37° C. overnight.
The protein carbonyl content in the above samples was detected by using the Protein Carbonyl Assay Kit of Nanjing Jiancheng Bioengineering Institute. The detection methods are as follows: take 0.1 mL of sample into the assay tube, then add 0.4 mL of reagent 3 in the kit, vortex to mix for 1 min, and react at 37° C. for 30 min in the dark. Add 0.5 mL of reagent 5 in the kit, vortex and mix for 1 min, centrifuge at 12,000 r/min for 10 min at 4° C., discard the supernatant, and leave the pellet. Add 1.0 mL of anhydrous ethanol and ethyl acetate (1:1) mixed solution, vortex to mix for 1 min, centrifuge at 12,000 r/min for 10 min at 4° C., discard the supernatant, leave the precipitate, and repeat the above steps four times. Add 1.25 mL of reagent VI in the kit, mix well, place it in 37° C. for 15 min, vortex to mix, dissolve all the precipitates, and centrifuge at 12,000 r/min for 15 minutes. Take the supernatant in a quartz cuvette with a light diameter of 0.5 cm, adjust the zero with reagent six, and measure the absorbance value of each tube at 370 nm (ultraviolet). According to the formula, we can get the protein carbonyl content.
The protein content of the samples was determined using Thermos's Micro BCA™ Protein Assay Kit. First, prepare Diluted Albumin (BSA) Standards (Working Range=20-750 μg/mL). Mix BCA Reagent A with Reagent B (Reagent A:Reagent B=50:1) to prepare working solution. Take 25 μL each of the protein standard at different dilution concentration and the protein sample, add them to the microplate. Add 200 μL of working solution to each well and mix well by shaking on a shaker for 30 s. The microplate was sealed and incubated at 37° C. for 30 min. Cool the microplate to room temperature and measure the absorbance of the sample at a wavelength of 562 nm. The corrected absorbance value is the absorbance value of the blank sample subtracted from the readings of each standard and sample. The protein concentration was read against a standard curve prepared with known amounts of BSA. Referring to the standard curve, according to the corrected absorbance value of each protein sample, read the protein concentration of each sample within the linear range of the standard curve. Calculate the amount of protein in the original sample based on the sample volume and dilution.
The anti-carbonylation capability of each anti-carbonylation agents/composition can be obtained by dividing the carbonylation degree of the sample by the BSA protein content.

On to `NCCCC[C@H](N)C(=O)O` [L-Lysine], for which, under setting [1], the “% inhibition of carbonylation (average)” value is listed as 21% and the “Percentage of protein carbonylation level (average)” value (“Percentage” below) is 79%. Under setting [2], the “% inhibition of carbonylation (average)” value was found to be 40% and the “Percentage” value is given as 60%.

With “Dendritic PL: dendritic polylysine, DendriClear from Lucas Meyer, Mw = 6171”, the “Percentage” value under setting [1] is recorded as 43% and the “Percentage” value under setting [2] worked out at 19%.
